Source: the supplement of paper PMC13380429

Columns and labels:
Conditions in all cases: 72 h
Vero E6 [1] = assay: relative viability EC50 (midpoint between 100% and the lowest measured viability); higher = less toxic
Caco-2 [2] = assay: as above
U2OS [3] = assay: as above
HepG2 [4] = assay: as above
Calu-3 [5] = assay: as above
Vero E6 [6] = assay: drug sensitivity score (DSS) for viability; higher = more toxic; extreme values may be limits of the assay
Caco-2 [7] = assay: as above
U2OS [8] = assay: as above
HepG2 [9] = assay: as above
Calu-3 [10] = assay: as above
Vero E6 [11] = assay: cell viability relative to DMSO; higher = less toxic
Caco-2 [12] = assay: as above
U2OS [13] = assay: as above
HepG2 [14] = assay: as above
Calu-3 [15] = assay: as above

Row | SMILES | relative viability EC50 (Vero E6 [1]) | relative viability EC50 (Caco-2 [2]) | relative viability EC50 (U2OS [3]) | relative viability EC50 (HepG2 [4]) | relative viability EC50 (Calu-3 [5]) | drug sensitivity score (Vero E6 [6]) | drug sensitivity score (Caco-2 [7]) | drug sensitivity score (U2OS [8]) | drug sensitivity score (HepG2 [9]) | drug sensitivity score (Calu-3 [10]) | cell viability (Vero E6 [11]; 1 nM) | cell viability (Vero E6 [11]; 10 nM) | cell viability (Vero E6 [11]; 100 nM) | cell viability (Vero E6 [11]; 1000 nM) | cell viability (Vero E6 [11]; 10000 nM) | cell viability (Caco-2 [12]; 1 nM) | cell viability (Caco-2 [12]; 10 nM) | cell viability (Caco-2 [12]; 100 nM) | cell viability (Caco-2 [12]; 1000 nM) | cell viability (Caco-2 [12]; 10000 nM) | cell viability (U2OS [13]; 1 nM) | cell viability (U2OS [13]; 10 nM) | cell viability (U2OS [13]; 100 nM) | cell viability (U2OS [13]; 1000 nM) | cell viability (U2OS [13]; 10000 nM) | cell viability (HepG2 [14]; 1 nM) | cell viability (HepG2 [14]; 10 nM) | cell viability (HepG2 [14]; 100 nM) | cell viability (HepG2 [14]; 1000 nM) | cell viability (HepG2 [14]; 10000 nM) | cell viability (Calu-3 [15]; 1 nM) | cell viability (Calu-3 [15]; 10 nM) | cell viability (Calu-3 [15]; 100 nM) | cell viability (Calu-3 [15]; 1000 nM) | cell viability (Calu-3 [15]; 10000 nM)
1 | CC(C)(C)C(=O)/C(=N/c1ccc(Cl)cc1)NNc1ccc(Cl)cc1 | > 10 µM | > 10 µM | > 10 µM | > 10 µM | > 10 µM | 0 | 0 | 0 | 0 | 0 | 97.5% | 99.3% | 102% | 97.2% | 107% | 82.3% | 91.6% | 91.4% | 96.6% | 83.9% | 96.7% | 107% | 102% | 103% | 94% | 105% | 95% | 95.5% | 95.3% | 97.6% | 97.8% | 107% | 98.8% | 98.6% | 102%
2 | CC(C)NC(=O)c1ccc(C#Cc2ccncc2)cn1 | > 10 µM | > 10 µM | > 10 µM | > 10 µM | > 10 µM | 0 | 0 | 0 | 0 | 0 | 100% | 96.1% | 92.2% | 94.5% | 101% | 101% | 90.3% | 99.1% | 92.4% | 95.4% | 95.1% | 98.3% | 97.1% | 104% | 102% | 104% | 102% | 98.1% | 96.7% | 98.1% | 90.1% | 95.8% | 99.9% | 99% | 114%
3 | CCCOCCn1c(=O)c(N2CCN(CCO)CC2)nc2cnc(-c3ccc(OC)nc3)cc21 | > 10 µM | > 10 µM | > 10 µM | > 10 µM | > 10 µM | 0 | 0.1 | 0 | 0 | 0 | 109% | 107% | 100% | 107% | 92.8% | 102% | 92.3% | 94.4% | 86.8% | 93.6% | 95.5% | 97.4% | 103% | 95.5% | 99.8% | 109% | 105% | 98.8% | 104% | 87.1% | 99.5% | 88.8% | 98.9% | 94.2% | 104%
4 | CCNC(=O)c1n[nH]c(-c2cc(Cl)c(O)cc2O)c1-c1ccc(OC)cc1 | 1.29 µM | 1.58 µM | 1.64 µM | 0.714 µM | 1.61 µM | 6.5 | 6.2 | 8.6 | 13.3 | 5.6 | 100% | 95.7% | 100% | 78.5% | 37.8% | 95.3% | 101% | 94.4% | 83.8% | 32.7% | 93.7% | 99.1% | 99.5% | 78.7% | 4.7% | 104% | 94.2% | 105% | 31.3% | 2% | 99.8% | 88.5% | 96.1% | 85.8% | 39.2%
5 | COC(=O)C(Cc1ccc(OCCn2c(=O)sc3cc(C(=O)c4ccccc4)ccc32)cc1)C(=O)OC | > 10 µM | > 10 µM | > 10 µM | > 10 µM | > 10 µM | 2.1 | 0 | 0 | 0 | 0 | 93.7% | 96.7% | 89.2% | 81.6% | 85.5% | 100% | 93% | 101% | 109% | 101% | 100% | 95.1% | 95.6% | 106% | 105% | 95.5% | 101% | 98.7% | 95.1% | 102% | 94.4% | 109% | 97.7% | 104% | 118%
6 | COc1cc(C(=O)NCC2(N(C)C)CCCC2)cc(OC)c1OCc1ccccc1 | > 10 µM | > 10 µM | > 10 µM | > 10 µM | > 10 µM | 0 | 0 | 0 | 0.3 | 0.1 | 104% | 99.9% | 107% | 99.4% | 95.8% | 95.5% | 98.1% | 103% | 97.3% | 93.5% | 100% | 104% | 97% | 104% | 95.9% | 97.3% | 106% | 101% | 88.8% | 89.6% | 94.3% | 92.1% | 96.7% | 103% | 85.8%
7 | C[C@@H]1CN(Cc2ncccn2)C[C@H]1c1nc2c(cnn2C2CCOCC2)c(=O)[nH]1 | > 10 µM | > 10 µM | > 10 µM | > 10 µM | > 10 µM | 0 | 0 | 0 | 0 | 0 | 93.6% | 97.7% | 93.7% | 96% | 103% | 94.4% | 92.4% | 96% | 94.7% | 107% | 98.2% | 102% | 102% | 103% | 99.9% | 99.2% | 94% | 100% | 96.5% | 107% | 98.5% | 100% | 105% | 111% | 93.7%
8 | C[C@H](NC[C@H](O)CP(=O)(O)Cc1ccccc1)c1ccc(Cl)c(Cl)c1 | > 10 µM | > 10 µM | > 10 µM | > 10 µM | > 10 µM | 0 | 0 | 0 | 0 | 0 | 99.4% | 96.8% | 98.1% | 94.8% | 98.1% | 104% | 100% | 95.9% | 99.5% | 89.8% | 96.5% | 101% | 94.6% | 97.9% | 94.3% | 96.9% | 92.4% | 94.8% | 80.1% | 95% | 102% | 107% | 95.3% | 100% | 106%
9 | Cc1ccc(-c2n[nH]c3c2C(c2cccc(O)c2)N(c2ccc(C(=O)O)cc2)C3=O)cc1 (centres undefined) | > 10 µM | > 10 µM | > 10 µM | > 10 µM | > 10 µM | 0 | 0 | 0 | 0 | 0 | 102% | 104% | 101% | 95.8% | 101% | 93.4% | 99.2% | 87% | 100% | 100% | 90.5% | 96.2% | 99.1% | 99.7% | 98.1% | 111% | 101% | 114% | 93.4% | 103% | 92% | 105% | 98.6% | 99.9% | 88.2%
10 | Cc1nc2ccc(NC(=O)Nc3ccnc4cccnc34)cc2o1 | > 10 µM | > 10 µM | > 10 µM | > 10 µM | > 10 µM | 0 | 1.6 | 0 | 0.8 | 0 | 97.6% | 98.8% | 90.9% | 102% | 93.2% | 94.9% | 92.2% | 98% | 89.6% | 76.1% | 101% | 93% | 99.3% | 96.4% | 96.4% | 98.9% | 102% | 94.7% | 92.8% | 80.7% | 102% | 103% | 94.5% | 92.7% | 90.3%
11 | Cn1c2c(c3ccccc31)CCNCC2 | > 10 µM | > 10 µM | > 10 µM | > 10 µM | > 10 µM | 0 | 0 | 0 | 0 | 0 | 102% | 103% | 104% | 108% | 99.6% | 109% | 98.6% | 102% | 97.9% | 97.1% | 100% | 94.4% | 98.3% | 95.9% | 104% | 93% | 98.3% | 93.1% | 103% | 98.4% | 96.7% | 101% | 99.3% | 103% | 96.8%
12 | Cn1cc(C(=O)C(=O)N[C@H]2CN3CCC2CC3)c2ccccc21 | > 10 µM | > 10 µM | > 10 µM | > 10 µM | > 10 µM | 0 | 0 | 0 | 0 | 0 | 112% | 114% | 105% | 97.9% | 98.5% | 95.7% | 99.6% | 104% | 99.9% | 110% | 96.8% | 107% | 99.2% | 101% | 96.1% | 108% | 94.2% | 114% | 95.3% | 96.9% | 99.9% | 102% | 98.9% | 100% | 94.5%
13 | N#Cc1cc(CN2CCC(Nc3ncnc4sc(Cl)cc34)CC2)ccc1F | > 10 µM | > 10 µM | > 10 µM | 1.4 µM | > 10 µM | 0 | 0.8 | 0 | 7.1 | 0.2 | 102% | 98.1% | 103% | 102% | 93.4% | 98% | 98.7% | 91.2% | 98.8% | 79.7% | 96.9% | 98.6% | 96.3% | 103% | 89.1% | 97.6% | 97.3% | 107% | 78.6% | 29.1% | 104% | 106% | 103% | 97.7% | 87.7%
14 | Nc1nc2c(cnn2CCc2ccccc2)c2nc(-c3ccco3)nn12 | > 10 µM | – | > 10 µM | 0.354 µM | > 10 µM | 0 | 4.1 | 0 | 14.9 | 0 | 107% | 99.8% | 98.2% | 99.6% | 96.1% | 96.7% | 104% | 93.5% | 78.3% | 67.5% | 98% | 99.8% | 92.7% | 98.6% | 100% | 97.7% | 101% | 90.9% | 25.5% | 12.7% | 88.2% | 100% | 95.7% | 113% | 90.7%
